# Like-named read-outs stand apart in the source and are kept apart here.
# Columns and labels:
# [1] = tested on: TS-negative FSthy21 cells transfected with I108F mutant human TS cDNA; assay type: cell-based, mouse
# [2] = tested on: TS-negative FSthy21 cells transfected with F225W mutant human TS cDNA; assay type: cell-based, mouse; conditions: for Ratio of IC50 values for mutant/wt cells: F225W/clone (2) vs wild-type clone (1); for resistance, IC50 values greater than wild-type transfectants: F225W transfectants vs wild-type transfectants
# [3] = tested on: TS-negative FSthy21 cells transfected with F225L mutant human TS cDNA; assay type: cell-based, mouse; conditions: F225L/clone (3) vs wild-type clone (1)
# [4] = tested on: TS-negative FSthy21 cells transfected with F225Y mutant human TS cDNA; assay type: cell-based, mouse; conditions: F225Y/clone (1) vs wild-type clone (1)
# [5] = tested on: TS-negative FSthy21 cells transfected with L221A mutant human TS cDNA; assay type: cell-based, mouse; conditions: L221A/clone (2) vs wild-type clone (1)
# [6] = tested on: TS-negative FSthy21 cells transfected with L221I mutant human TS cDNA; assay type: cell-based, mouse; conditions: L221I/clone (1) vs wild-type clone (1)
# [7] = tested on: TS-negative FSthy21 cells transfected with L221S mutant human TS cDNA; assay type: cell-based, mouse; conditions: L221S/clone (2) vs wild-type clone (1)
# [8] = tested on: TS-negative FSthy21 cells transfected with K47E mutant human TS cDNA; assay type: cell-based, mouse; conditions: K47E/clone (2) vs wild-type clone (1)
# [9] = tested on: TS-negative FSthy21 cells transfected with D49G mutant human TS cDNA; assay type: cell-based, mouse; conditions: for Ratio of IC50 values for mutant/wt cells: D49G/clone (1) vs wild-type clone (1); for resistance, IC50 values greater than wild-type transfectants: D49G transfectants vs wild-type transfectants
# [10] = tested on: TS-negative FSthy21 cells transfected with G52S mutant human TS cDNA; assay type: cell-based, mouse; conditions: for Ratio of IC50 values for mutant/wt cells: G52S/clone (3) vs wild-type clone (1); for resistance, IC50 values greater than wild-type transfectants: G52S transfectants vs wild-type transfectants
# [11] = tested on: HT1080 cells; assay: AG337 sensitivity of HT1080 (colony formation); assay type: cell-based, human; conditions: drug cytotoxicity assay
# Experimental: The optimum concentration of AG337 for selection of resistant clones was determined as follows. The human fibrosarcoma HT1080 cells were seeded into 6-well plates at 100 cells per well and incubated at 37° C. with complete medium. Various concentrations of AG337 were added after 24 hours. Drug-containing medium was changed every 4 days and surviving colonies were counted after 14 days of drug treatment.
# [12] = tested on: in situ TS activity in AG337-resistant HT1080 cell lines; assay: Whole cell TS assay (tritium release); assay type: cell-based, human; conditions: resistant lines HT1080/1b, 2b, 1c, 2c, 1d, 2d, 6e at minimal AG337 concentration giving no detectable TS activity in HT1080
# Experimental: Resistance to TS inhibitors was evaluated using the whole cell TS assay for several AG337-resistant sublines and parental cell line HT1080 as a control. […] For the absence of TS inhibitors, cells convert 2′-[5-^3H]-deoxyuridine to dTMP, releasing ^3H2O into the medium. The rate of dTMP synthesis in the presence or absence of drug was assessed at 0, 15, 30, 40 minutes, by measurement of [3H]2O release by charcoal-TCA (trichloroacetic acid) separation of ^3H2O from nucleosides and nucleotides. Radioactivity was quantitated using a liquid scintillation counter (Beckman LS5).
# The effect of AG337 on whole cell in situ TS activity was measured by the tritium release assay in HT1080 cells and several resistant cell lines with putative mutations. The cell lines HT1080/1b, HT1080/2b, HT1080/1c, HT1080/2c, HT1080/1d, HT1080/2d and HT1080/6e were resistant to AG337. […] This method provided a rapid qualitative confirmation of whether or not a cell line is resistant to AG337.
# [13] = tested on: mouse bone marrow cells (N.B.M.); assay: CFU-GM / HPPCFU-C assay, N.B.M.; assay type: cell-based
# [14] = tested on: mouse bone marrow cells transfected with wild type TS (TS161); assay: CFU-GM / HPPCFU-C assay, marrow transfected with plasmid TS161; assay type: cell-based
# Experimental: (§1) DNA into Mouse Bone Marrow Progenitor Cells Twenty micrograms of plasmid DNA (TS161 or TS175) and ten micrograms of DOTAP were diluted to 100 μl with HBS buffer and incubated at room temperature for 10 minutes. The mixture was added to 2×10^6 mouse bone marrow cells suspended in 0.5 ml of IMDM medium (in a 35 mm culture dish). After a 4 hour incubation at 37° C., 2 ml of IMDM with 30% FBS was added to each dish and the incubation was continued for 24 hours. […] Transfected cells prepared as described above were distributed into 10×35 mm dishes (3×10^5 cells in […] IMDM media/dish). […] Drug was added at the indicated concentration to each dish and the cells were cultured at 37° C. (5% CO2) for 10-14 days.
# [15] = tested on: mouse bone marrow cells transfected with mutant TS (TS175); assay: CFU-GM / HPPCFU-C assay, marrow transfected with plasmid TS175; assay type: cell-based
# Experimental: as §1
# [16] = molecular target: TS-negative FSthy21 cells transfected with I108A mutant human TS cDNA (Homo sapiens, UniProt P04818, P2L/I108A, cells depend on it); assay: Growth inhibition assay (alamar Blue), I108A transfectants; conditions: read-out: IC50 values, 7-day exposure
# TS-negative FSthy21 cells transfected with I108A mutant human TS cDNA (Homo sapiens, UniProt P04818, P2L/I108A, cells depend on it), sequence (P04818 whole entry P2L/I108A): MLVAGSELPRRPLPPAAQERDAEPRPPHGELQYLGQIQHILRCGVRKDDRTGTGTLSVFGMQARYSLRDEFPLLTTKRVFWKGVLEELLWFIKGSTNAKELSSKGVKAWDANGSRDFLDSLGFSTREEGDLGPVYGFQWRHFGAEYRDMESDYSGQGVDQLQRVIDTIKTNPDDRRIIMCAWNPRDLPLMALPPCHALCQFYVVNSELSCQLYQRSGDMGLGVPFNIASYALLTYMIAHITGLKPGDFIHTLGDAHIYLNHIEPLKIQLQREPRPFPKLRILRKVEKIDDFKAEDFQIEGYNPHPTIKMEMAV
# Experimental: (§2) The mouse TS-negative FSthy21 cells were used as the host for DNA transfections. This cell line, which is a TS-deficient derivative of mouse FM3A cells, was routinely maintained in MEM medium supplemented with 10% fetal bovine serum and 10×10^−5 M thymidine. Transfections were performed by DOTAP, using 10 μg of DNA/culture. Four days after transfection, cells were placed in selective medium, which contain no thymidine and reduced folate. Colonies having the ability to grow in the absence of thymidine were pooled and propagated as a mass culture.
# (§3) Logarithmically growing suspension mouse TS-20 negative FSthy21 cells transfected with wild-type or variant human TS cDNA were seeded in 96-well plates at 1,000 cells/well in 180 μl of complete medium. […] Cell viability was measured by the alamar Blue™ assay. This method incorporates an oxidation-reduction (REDOX) indicator that both fluoresces and changes color in response to chemical reduction of growth medium resulting from cell growth. To above 96-well cultured cells, 25 μl of Alamar Blue (Alamar, Sacramento, Calif.) (10% of incubation volume) were added according to the manufacturer's instructions. The culture 96-well plates were then incubated at 37° C. for 4 hours. Viable cells induce chemical reduction of the media which results in a change in REDOX color from blue to red. The intensity of red color (and fluoresces) is proportional to the viable cells. After incubation, fluorescence is was read at 530-560 nm excitation wavelength and 590 nm emission wavelength by an automated plate reader (model EL340; Bio-Tek). Drug concentrations needed to reduce cell growth by 50% (IC50 values) were determined graphically by plotting of cell growth verses inhibitor concentration.
# (§4) The effect of three antifolates and FdUrd on the growth characteristics of transfectants that stably express various TS proteins was evaluated by cytotoxicity studies. Cell growth was measured by the alamar blue assay. IC50 values were calculated as the concentration of inhibitor required to inhibit growth by 50% compared to wild-type transfected cells grown under identical conditions.
# [17] = tested on: TS-negative FSthy21 cells transfected with I108A mutant human TS cDNA; assay: as above; conditions: for resistance, IC50 values greater than wild-type transfectants: I108A transfectants vs wild-type transfectants
# Experimental: as §2, §3, §4
# [18] = molecular target: TS-negative FSthy21 cells transfected with wild-type human TS cDNA (Homo sapiens, UniProt P04818, P2L, cells depend on it); assay: Growth inhibition assay (alamar Blue), TS-negative cells transfected with wild-type human TS cDNA; assay type: cell-based, mouse; conditions: FdUrd, 7-day exposure, read-out: IC50 values
# TS-negative FSthy21 cells transfected with wild-type human TS cDNA, sequence (P04818 whole entry P2L): as the sequence (P04818 whole entry P2L/I108A) above, with A108I counted along it
compound,measurement,setting,value
Cc1ccc2nc(N)[nH]c(=O)c2c1Sc1ccncc1 [AG337],Ratio of IC50 values for mutant/wt cells,"[1]; AG337, 1108F/clone (2) vs wild-type clone (2)",7.0(2)
same,Ratio of IC50 values for mutant/wt cells,[2]; AG337,1.0(1)
same,Ratio of IC50 values for mutant/wt cells,[3]; AG337,1.0(1)
same,Ratio of IC50 values for mutant/wt cells,[4]; AG337,1.5(1)
same,Ratio of IC50 values for mutant/wt cells,[5]; AG337,5.5(1)
same,Ratio of IC50 values for mutant/wt cells,[6]; AG337,5.2(1)
same,Ratio of IC50 values for mutant/wt cells,[7]; AG337,4.5(1)
same,Ratio of IC50 values for mutant/wt cells,[8]; AG337,5.0(1)
same,Ratio of IC50 values for mutant/wt cells,[9]; AG337,40(1)
same,"resistance, IC50 values greater than wild-type transfectants",[9],40 fold
same,Ratio of IC50 values for mutant/wt cells,[10]; AG337,12(1)
same,"resistance, IC50 values greater than wild-type transfectants",[10],12 fold
same,IC50,[11],2100 nM
same,TS activity in whole cells,[12],not totally inhibited
same,HPPCFU-C colonies,[13]; AG337 1 × 10^−7 M,0
same,CFU-GM colonies,[13]; AG337 1 × 10^−8 M,10
same,"CFU-GM colonies, % in parentheses",[13]; AG337 1 × 10^−8 M,12%
same,CFU-GM colonies,[13]; AG337 2 × 10^−7 M,0
same,HPPCFU-C colonies,[14]; AG337 1 × 10^−7 M,0
same,CFU-GM colonies,[14]; AG337 1 × 10^−8 M,20
same,"CFU-GM colonies, % in parentheses",[14]; AG337 1 × 10^−8 M,19%
same,CFU-GM colonies,[14]; AG337 2 × 10^−7 M,0
same,HPPCFU-C colonies,[15]; AG337 1 × 10^−7 M,8
same,"HPPCFU-C colonies, % in parentheses",[15]; AG337 1 × 10^−7 M,6%
same,CFU-GM colonies,[15]; AG337 1 × 10^−8 M,60
same,"CFU-GM colonies, % in parentheses",[15]; AG337 1 × 10^−8 M,42%
same,CFU-GM colonies,[15]; AG337 2 × 10^−7 M,12
same,"CFU-GM colonies, % in parentheses",[15]; AG337 2 × 10^−7 M,8%
same,GI50,"[16]; AG337, 1108A/clone (1) [175-1]",30500 ± 3700 nM
same,GI50,"[16]; AG337, 1108A/clone (2) [175-2]",29000 ± 2500 nM
same,GI50,"[16]; AG337, 1108A/clone (3) [175-3]",76600 ± 2800 nM
same,Ratio of IC50 values for mutant/wt cells,"[17]; AG337, 1108A/clone (1) vs wild-type clone (2)",80(2)^2
same,Ratio of IC50 values for mutant/wt cells,"[17]; AG337, 1108A/clone (2) vs wild-type clone (2)",76(2)
same,Ratio of IC50 values for mutant/wt cells,"[17]; AG337, 1108A/clone (3) vs wild-type clone (2)",200(2)
same,biggest difference in IC50 values between clones,[17]; clones 175-2 and 175-3,less than 3 fold
"O=c1[nH]c(=O)n([C@H]2C[C@H](O)[C@@H](CO)O2)cc1F [FdUrd, 5-fluoro-2′-deoxyuridine]",GI50,[18]; wild-type/clone (1) [161-1],0.029 ± 0.0003 nM
same,GI50,[18]; wild-type/clone (2) [161-2],0.0896 ± 0.0062 nM
same,GI50,[18]; wild-type/clone (3) [161-3],0.0286 ± 0.0002 nM
same,Ratio of IC50 values for mutant/wt cells,"[1]; FdUrd, 1108F/clone (2) vs wild-type clone (1)",6.1(1)
same,"resistance, IC50 values greater than wild-type transfectants",[2],25 fold
same,Ratio of IC50 values for mutant/wt cells,[2]; FdUrd,25(1)
same,Ratio of IC50 values for mutant/wt cells,[3]; FdUrd,5.7(1)
same,Ratio of IC50 values for mutant/wt cells,[4]; FdUrd,1.0(1)
same,Ratio of IC50 values for mutant/wt cells,[5]; FdUrd,4.0(1)
same,Ratio of IC50 values for mutant/wt cells,[6]; FdUrd,13(1)
same,Ratio of IC50 values for mutant/wt cells,[7]; FdUrd,1.2(1)
same,Ratio of IC50 values for mutant/wt cells,[8]; FdUrd,5.7(1)
same,"resistance, IC50 values greater than wild-type transfectants",[9],26 fold
same,Ratio of IC50 values for mutant/wt cells,[9]; FdUrd,26(1)
same,Ratio of IC50 values for mutant/wt cells,[10]; FdUrd,97(1)
same,"resistance, IC50 values greater than wild-type transfectants",[10],97 fold
same,GI50,"[16]; FdUrd, 1108A/clone (1) [175-1]",1.4 ± 0.19 nM
same,GI50,"[16]; FdUrd, 1108A/clone (2) [175-2]",1.05 ± 0.18 nM
same,GI50,"[16]; FdUrd, 1108A/clone (3) [175-3]",1.37 ± 0.25 nM
same,Ratio of IC50 values for mutant/wt cells,"[17]; FdUrd, 1108A/clone (1) vs wild-type clone (2)",16(2)^2
same,Ratio of IC50 values for mutant/wt cells,"[17]; FdUrd, 1108A/clone (2) vs wild-type clone (2)",12(2)
same,Ratio of IC50 values for mutant/wt cells,"[17]; FdUrd, 1108A/clone (3) vs wild-type clone (2)",15(2)
same,"resistance, IC50 values greater than wild-type transfectants",[17],12 fold
Cc1nc2ccc3ccc(CNc4ccc5c(c4)CN([C@@H](CCC(=O)O)C(=O)O)C5=O)cc3c2c(=O)[nH]1,"resistance, IC50 values greater than wild-type transfectants",[2],22 fold
same,"resistance, IC50 values greater than wild-type transfectants",[17],6 fold

# From US6416987B1, “Mutants of thymidylate synthase and uses thereof” (Sloan Kettering Institute for Cancer Research, priority 1997, dated 2002)
